From US6841549B1, “Condensed imidazole compounds and a therapeutic agent for diabetes mellitus” (Eisai Co., Ltd., priority 1999, dated 2005)
pIC50, pKi: −log10 of the molar value. Structures can show the parent of a compound that is named as a salt.

How the values were obtained:
[1] = target: T1, Human adenosine A2b receptor (Homo sapiens, UniProt P29275); assay: Inhibition of NECA-stimulated cAMP production in receptor-expressing CHOK1 cells; type: cell-based; settings: CHOK1 cells over-expressing human A2b receptor, NECA 30 nM
T1 construct: expressed in transfected cells; host or cells: CHOK1 cells
T1 sequence (P29275 1-332): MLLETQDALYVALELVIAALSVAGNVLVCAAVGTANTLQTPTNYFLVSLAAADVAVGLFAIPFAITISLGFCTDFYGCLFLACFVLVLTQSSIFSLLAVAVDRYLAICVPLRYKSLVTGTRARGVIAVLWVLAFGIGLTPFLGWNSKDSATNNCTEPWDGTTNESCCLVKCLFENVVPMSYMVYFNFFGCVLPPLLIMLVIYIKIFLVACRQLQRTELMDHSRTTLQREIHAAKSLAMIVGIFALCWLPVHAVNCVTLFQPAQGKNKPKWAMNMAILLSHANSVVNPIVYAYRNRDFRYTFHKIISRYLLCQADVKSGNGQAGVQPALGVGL
Experimental: Human adenosine A2b receptor cDNA was over-expressed in CHOK1 cells. The cells were uniformly placed on a 24-well plate at a density of 1.5×10^5cells/well, incubated overnight and then used for the assays. Affinity of the test compound for the A2b receptor was evaluated by using, as an index, the rate of suppression of the amount of cAMP produced by stimulation of an adenosine agonist NECA (30 nM) in the presence of the test compound. Thus, the plate was washed twice with 2 ml/well of Krebs-Ringer-Bicarbonate buffer (KRB) (mM) (NaCl 118, KCl 4.8, KH2PO4 1.2, MgSO4 1.2, CaCl2 3.4, HEPES 10, NaHCO3 25, pH 7.4) and then pre-incubated (0.5 ml/well) for 30 minutes. Thereafter, a mixed solution containing 600 μM Ro-20-1724 (phosphodiesterase inhibitor), 180 nM NECA, and a test compound at a concentration 6-times higher than in the reaction solution was added in an amount of […]. After 15 minutes, the reaction was stopped by replacing the reaction solution by 0.1 N HCl (300 μl/well). Measurement of cAMP was carried out using an Amersham cAMP EIA Kit.
The rate of inhibition of NECA-stimulated cAMP production by the test compound was calculated using the following equation: Rate of Inhibition (%)=[1−{(cAMP amount in the presence of NECA and test compound-Basal cAMP amount)/(cAMP amount stimulated only by NECA−Basal cAMP amount)}]×100.
IC50 was calculated from the rate of inhibition.

[2] = test system: spontaneously diabetic mice (KK-Ay/Ta Jcl); assay: Action on hyperglycemia in spontaneously diabetic mice (single administration); type: in vivo; settings: male KK-Ay/Ta Jcl mice, 10 mg/kg oral, p < 0.01 vs. control (72.5 ± 3.7)
Experimental: Animals: Seven male KK-A^y/Ta Jcl mice for each group (purchased from Nippon Clair) Preparation and Administration of Test Compound: A test compound in a dose as shown in Table 1 was suspended in 0.5% aqueous methyl cellulose solution and was orally administered in a volume of 10 ml/kg. Collection of Blood Samples and Determination of Blood Sugar: Blood was collected from tail veins just before administration of the test compound and also 5 hours after the administration and blood sugar was determined. Method: Tail vein of a mouse was injured by a razor without anesthetization to bleed slightly. The blood (15 μl) was collected and immediately mixed with 135 μl of 0.6 M perchloric acid. Glucose in the supernatant separated by centrifugation (at 1500 g for10 minutes at 4° C. usingacooling centrifuge GS-6KR from Beckmann) was determined by Glucose CII Test Wako (Wako Pure Chemicals). The results are shown in terms of “(% ratio of blood sugar 5 hours after the administration to the blood sugar before the administration)±(standard error)”. The data were subjected to one-way layout analysis of variance and then subjected to multiple comparison of Dunnett type. Difference with p<0.05 was deemed significant.

[3] = test system: primary cultured rat hepatic cells; assay: Inhibition of NECA-stimulated glucose production in primary cultured rat hepatic cells; type: cell-based; settings: primary cultured Wistar rat hepatic cells, NECA 0.1, 1 hour; read-out: IC50 for inhibition of NECA-stimulated glucose release
Experimental: Hepatic cells were separated by a collagenase perfusion method from livers of male rats of Wistar strain and subjected to a primary culture in a William's Medium E containing 5% calf serum, 10^−6 M insulin and 10^−7 M dexamethasone. After 1 day, the hepatic cells were washed with a Krebs-Ringer Bicarbonate buffer (mM) (NaCl 118, KCl 4.8, KH2PO4 1.2, MgSO4 1.2, CaCl2 3.4, HEPES 10, NaHCO3 25) pH 7.4 (KRB) containing 10 mM HEPES and 0.1% bovine serum albumin and KRB was added thereto, then incubated at 37° C. After 30 minutes, NECA (N-ethylcarboxamide adenosine) (final concentration: […]) and a test compound were added thereto at the same time, the mixture was incubated for additional one hour, and the amount of glucose released into the incubation medium was measured.

adenosine A2a receptor = target: T2, adenosine A2a receptor (Homo sapiens, UniProt P29274); assay: Adenosine A2a receptor binding assay (3H-CGS21680); settings: 3H-CGS21680 binding, membrane over-expressing A2a receptor, Cheng-Prusoff; read-out: inhibition constant (Ki value)
T2 construct: purchased Receptor Biology Inc
Experimental: A membrane specimen prepared by over-expression of adenosine A2a receptor was purchased from Receptor Biology Inc., and used to carry out adenosine A2a receptor binding assays. The purchased membrane specimen was suspended at a concentration of 22.2 μg/ml inan incubation buffer (20 mM HEPES, 10 mm MgCl2 and 100 mM NaCl, pH 7.4). To 0.45 ml of this membrane specimen were added 0.25ml of tritium-labeled^3H-CGS21680 (500 nM; 30 Ci/mmol) and 0.025 ml of the test compound. The solution of the test compound was prepared by dissolving the compound at a concentration of 20 mM in DMSO and then successively diluting the solution 10-fold with the incubation buffer. […] Thereafter, the glass fiber filter was transferred to a vial bottle, a scintillator was added thereto, and the radioactivity on the filter was measured by a liquid scintillation counter. The rate of inhibition of (^3H-CGS21680) binding to the A2a receptor by the test compound was calculated using the following equation, and from this rate of inhibition, IC50 was calculated. […]
The total binding amount is ^3H-CGS21680 binding radioactivity in the absence of the test compound. The non-specific binding amount is ^3H-CGS21680 binding radioactivity in the presence of […] of RPIA. The binding amount in the presence of drug is ^3H-CGS21680 binding radioactivity in the presence of the test compound of various concentrations. […]

T2 sequence (P29274 whole entry): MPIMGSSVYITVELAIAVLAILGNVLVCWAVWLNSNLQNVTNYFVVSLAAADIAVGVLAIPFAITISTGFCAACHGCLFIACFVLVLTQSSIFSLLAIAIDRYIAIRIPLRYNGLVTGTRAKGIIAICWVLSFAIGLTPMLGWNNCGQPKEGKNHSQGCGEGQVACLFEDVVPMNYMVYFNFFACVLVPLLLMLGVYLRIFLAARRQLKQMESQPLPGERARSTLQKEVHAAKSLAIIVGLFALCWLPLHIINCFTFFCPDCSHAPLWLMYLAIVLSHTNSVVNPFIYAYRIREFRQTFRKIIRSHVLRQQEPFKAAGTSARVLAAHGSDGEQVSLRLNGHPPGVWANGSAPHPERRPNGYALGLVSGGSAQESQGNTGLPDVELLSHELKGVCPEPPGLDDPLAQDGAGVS

## Cl.Cn1cc(-n2c(-c3cccc(F)c3)nc3c(N)ncnc32)ccc1=O [Example 5, 5-[6-Amino-8-(3-fluorophenyl)-9H-9-purinyl]-1-methyl-1,2-dihydro-2-pyridinone hdrochloride]
[1]
  pIC50: 7.96
[2]
  % ratio of blood sugar 5 hours after the administration to the blood sugar before the administration ± standard error: 47.3 ± 7.2%
[3]
  pIC50: 8.12
Adenosine A2a receptor
  pKi: 8.49

## C=CCn1c(-c2cccc(F)c2)nc2c(N)nc(C#CC3(O)CCC3)nc21 [Example 20, 1-{2-[9-Allyl-6-amino-8-(3-fIuorophenyl)-9H-2-purinyl]-1-ethynyl]}-1-cyclobutanol hydrochloride]
[3]
  pIC50: 8.08
Adenosine A2a receptor
  pKi: 8.02
